In paper PMC8471300, “A Computational Workflow for the Identification of Novel Fragments Acting as Inhibitors of the Activity of Protein Kinase CK1δ” (International Journal of Molecular Sciences, 2021):
Where two headings read alike, the source gives them in different places.

Assays:
CK1δ [1] = target: CK1δ; design: method as in PMID 21336281; conditions: cited from earlier work
CK1δ (aa 1-294) = target: T1, CK1δ (aa 1-294) (Homo sapiens, UniProt P48730); assay: CK1δ KinaseGlo luminescence enzymatic assay; assay type: biochemical; conditions: for remaining activity at 40 µM: ligand at 40 μM, mean of two independent experiments in duplicate, read-out: % CK1δ residual activity - fixed dose 40 μM; for IC50: mean of three independent experiments, 95% confidence limits in brackets, 4 μM ATP, 0.1% casein
T1 construct: Compounds were evaluated towards CK1δ (aa 1-294, Merck Millipore); purchased Merck Millipore
T1 sequence (P48730 1-294): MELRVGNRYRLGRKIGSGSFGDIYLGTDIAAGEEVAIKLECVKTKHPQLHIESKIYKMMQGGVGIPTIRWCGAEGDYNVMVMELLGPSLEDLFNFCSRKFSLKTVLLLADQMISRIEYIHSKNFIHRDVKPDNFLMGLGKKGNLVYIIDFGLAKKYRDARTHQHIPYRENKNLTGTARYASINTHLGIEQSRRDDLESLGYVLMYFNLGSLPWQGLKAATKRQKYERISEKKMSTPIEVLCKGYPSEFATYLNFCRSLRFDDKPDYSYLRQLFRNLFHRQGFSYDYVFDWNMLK
Protocol: Fragments were tested against CK1δ using a luminescent-based assay.
Compounds were evaluated towards CK1δ (aa 1-294, Merck Millipore, Frankfurter Strasse 250, Darmstadt, 64293, Germany) with the KinaseGlo® luminescence assay (Promega Corporation, 2800 Woods Hollow Road Madison, WI 53711, USA) following procedures reported in the literature. In detail, luminescent assays were performed in white 96-well plates, using the following buffer: 50 mM HEPES (pH 7.5),1 mM EDTA, 1 mM EGTA, and 15 mM MgCl2. […] In a typical assay, 10 μL of inhibitor solution (dissolved in DMSO at 10 mM concentration and diluted in assay buffer to the desired concentration) and 10 μL (16 ng) of enzyme solution were added to each well, followed by 20 μL of assay buffer containing 0.1% casein substrate and 4 μM ATP.
After 60 min of incubation at 30 °C, the enzymatic reactions were stopped with 40 μL of KinaseGlo® reagent (Promega). The luminescence signal (relative light unit, RLU) was recorded after 10 min at 25 °C using Tecan Infinite M100. […] Two independent experiments were performed in duplicate and the corresponding residual activity of CK1δ was obtained. Data were analyzed using Excel and reported as the mean of the two experiments with standard deviation. For IC50 determination ten different inhibitor concentrations ranging from 100 to0.026 μM were used and each point was assessedin duplicate. IC50 values are the mean of three independent experiments and 95% confidence limits were also reported. Data were analyzed using GraphPad Prism software (version 8.0).

CK1δ [2] = target: CK1δ; design: method as in PMID 19825801; conditions: cited from earlier work
ALK kinase = target: ALK kinase; design: method as in PMID 19825801; conditions: cited from earlier work

Row | remaining activity at 40 µM (CK1δ (aa 1-294)) [%] | IC50 (CK1δ (aa 1-294)) [µM] | SMILES | also measured
1 |  |  | CSc1c[nH]c2ncnc(NCCCO)c12 [CHEMBL2000114] | Ki (CK1δ [1]; same kinome scan from Abbott Labs): 1 µM
2 | 24.4 | 20.5 | Nc1n[nH]c2cc(Cl)ccc12 [Compound 38] | 
3 | 35.4 | 24.9 | Nc1n[nH]c2cccc(F)c12 [Compound 63] | 
4 | 28.1 | 18.1 | Nc1nsc(Nc2ccccc2)n1 [Compound 62] | 
5 | 37.8 | 3.31 | N#Cc1c(N)nsc1N1CCOCC1 [Compound 28] | 
6 | 24.7 | 13.9 | Nc1ncnc2nccc(O)c12 [Compound 59] | 
7 | 28.3 | 13.5 | Cc1c(C)n(-c2cccnc2)c2ncnc(N)c12 [Compound 52] | 
8 |  |  | O=C(Nc1n[nH]c2ccc(-c3cn(Cc4ccccc4)nn3)cc12)c1ccccc1 [CHEMBL1999931] | Ki (CK1δ [1]; multikinase inhibitor with 3-amino-indazole scaffold): 0.316 µM
9 |  |  | CNC(=O)c1c(F)cccc1Nc1nc(Nc2cc3c(cc2OC)CCN3C(=O)CN(C)C)nc2[nH]ccc12 [GSK1838705A] | Ki (CK1δ [2]): 3.5 µM; IC50 (ALK kinase): […]
10 | 23.8 | 12.7 | Nc1ncnc2sc3c(c12)CCCC3 [Compound 37] | 
